Source: US9302012B2, “Anti-bacterial siderophore-aminopenicillin conjugates” (University of Notre Dame Du Lac, priority 2012, dated 2016)
Like-named read-outs stand apart in the source and are kept apart here.

Key:
[1] = tested on: E. coli H1443 (fepA+, cir+, fiu+); experiment: Agar diffusion antibacterial susceptibility assay; format: cell-based; conditions: Escherichia coli, 24 h, 37° C., read-out: Diameter of growth inhibition zones; for zone of inhibition at 100 µM: 50 μL of 0.1 mM solution; for zone of inhibition at 200 µM: 50 μL of 0.2 mM solution
Experimental: (§1) All liquids and media were sterilized by autoclaving (121° C., 15 min) before use. All aqueous solutions and media were prepared using distilled, deionized, and filtered water (Millipore Milli-Q Advantage A10 Water Purification System). Luria broth (LB) was purchased from VWR. Mueller-Hinton No. 2 broth (MHII broth; cation adjusted) was purchased from Sigma-Aldrich (St. Louis, Mo.). Iron-deficient (—Fe) MHII broth was prepared by adding 0.8 mL of a 1 mg/mL sterile aq. solution of 2,2′-bipyridine to 49.2 mL of MHII broth. Iron-rich (+Fe) MHII broth was prepared by adding 0.8 mL of a 1 mg/mL sterile aq. solution of FeCl3 to 49.2 mL of MHII broth. Mueller-Hinton No. 2 agar (MHII agar; HiMedia Laboratories) was purchased from VWR. Iron-deficient (−Fe) MHII agar was prepared by adding 0.5 mL of a 1 mg/mL sterile aq. solution of 2,2′-bipyridine to 34 mL of melted MHII agar with gentle mixing. Iron-rich (+Fe) MHII agar was prepared by adding 0.5 mL of a 1 mg/mL sterile aq. solution of FeCl3 to 34 mL of melted MHII agar with gentle mixing. See also Wencewicz, T. A. Dissertation, University of Notre Dame, Notre Dame, Ind., 2011, for relevant techniques.
(§2) Antibacterial Susceptibility Testing by the Agar Diffusion Assay.
(§3) Antibacterial activity of the compounds was determined by a modified Kirby-Bauer agar diffusion assay. Overnight cultures of test organisms were grown in LB broth for 18-24 h and standard suspensions of […] were prepared in saline solution (0.9% NaCl) according to a 0.5 BaSO4 McFarland Standard. This standardized suspension (0.1 mL) was added to 34 mL of sterile, melted agar (−Fe or +Fe) tempered to 47-50° C. After gentle mixing, the inoculated agar media was poured into a sterile plastic petri dish (145 mm×20 mm) and allowed to solidify near a flame with the lid ajar for about 30 min. Wells of 9.0 mm diameter were cut from the petri dish agar and filled with exactly 50 μL of the test sample solution. The petri dish was incubated at 37° C. for 18-24 h and the inhibition zone diameters were measured (mm) with an electronic caliper after 24 h.

[2] = tested on: collection of strains of P. aeruginosa; experiment: Agar well diffusion test (several strains); format: cell-based, Pseudomonas aeruginosa; conditions: KW799/wt, PAO1, Pa4, and Pa6; Table 1
Experimental: Conjugates 10 and 11 were first evaluated for their antibacterial ability against a collection of strains of P. aeruginosa using the agar well diffusion test. The influence of iron concentration on antibacterial activity was probed as well by conducting assays in iron-rich and iron-deficient media.
as §1, §2, §3

Q: What does the source list for `CC(=O)Oc1cccc(C(=O)NCCCC(CCCNC(=O)c2cccc(OC(C)=O)c2OC(C)=O)(CCCNC(=O)c2cccc(OC(C)=O)c2OC(C)=O)NC(=O)CCC(=O)NC(C(=O)NC2C(=O)N3C2SC(C)(C)C3C(=O)O)c2ccccc2)c1OC(C)=O` (stereo not drawn) [Compound 10]?
A: zone of inhibition at 100 µM ([1]; +Fe agar): 0 mm; zone of inhibition at 100 µM ([1]; −Fe agar): 19 mm

Q: Which “activity against wild type strains of P. aeruginosa (agar diffusion, in words)” value [2] does the source give for `CC1(C)S[C@@H]2[C@H](NC(=O)[C@H](N)c3ccccc3)C(=O)N2[C@H]1C(=O)O` [Ampicillin, reference compound] here?
A: Its value is “inactive or only weakly active”.

Q: Which “activity against wild type strains of P. aeruginosa (agar diffusion, in words)” value [2] does the source give for `CC1(C)S[C@@H]2[C@H](NC(=O)[C@H](N)c3ccc(O)cc3)C(=O)N2[C@H]1C(=O)O` [Amoxicillin, reference compound] here?
A: The value was “inactive or only weakly active”.

Q: For `CC(=O)Oc1cccc(C(=O)NCCCC(CCCNC(=O)c2cccc(OC(C)=O)c2OC(C)=O)(CCCNC(=O)c2cccc(OC(C)=O)c2OC(C)=O)NC(=O)CCC(=O)NC(C(=O)NC2C(=O)N3C2SC(C)(C)C3C(=O)O)c2ccc(O)cc2)c1OC(C)=O` (stereo not drawn) [Compound 11], which zone of inhibition at 200 µM ([1]; +Fe agar) is on record?
A: Its zone of inhibition at 200 µM is 0 mm.

Q: What about the zone of inhibition at 200 µM ([1]; −Fe agar) of the same molecule?
A: The zone of inhibition at 200 µM was 21 mm.
